Results as given in BindingDB's records for doi:10.1021/bi900236k (University of Thessaly, 2009).

Biological target: T1, Poly(A)-specific ribonuclease PARN (Homo sapiens, UniProt O95453)
T1 sequence (O95453 whole entry): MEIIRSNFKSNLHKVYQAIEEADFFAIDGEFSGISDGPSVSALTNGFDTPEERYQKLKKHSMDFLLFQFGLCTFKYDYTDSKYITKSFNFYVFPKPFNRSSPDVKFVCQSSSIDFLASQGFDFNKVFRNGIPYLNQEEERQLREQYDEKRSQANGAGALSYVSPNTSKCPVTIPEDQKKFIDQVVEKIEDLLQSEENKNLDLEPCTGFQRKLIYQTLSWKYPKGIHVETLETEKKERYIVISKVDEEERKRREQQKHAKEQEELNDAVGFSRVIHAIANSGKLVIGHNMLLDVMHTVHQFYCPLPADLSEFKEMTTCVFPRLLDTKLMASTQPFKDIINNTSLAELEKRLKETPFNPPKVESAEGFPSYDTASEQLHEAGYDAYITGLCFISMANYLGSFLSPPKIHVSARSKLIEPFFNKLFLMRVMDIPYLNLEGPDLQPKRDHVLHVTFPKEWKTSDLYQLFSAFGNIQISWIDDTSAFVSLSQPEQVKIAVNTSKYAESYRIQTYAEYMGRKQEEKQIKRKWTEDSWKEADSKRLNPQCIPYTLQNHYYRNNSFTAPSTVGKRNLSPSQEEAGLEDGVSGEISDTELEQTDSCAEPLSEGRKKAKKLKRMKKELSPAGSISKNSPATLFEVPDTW
Experiment: PARN Activity Assay
Experimental: The enzymatic activity was determined by the methylene blue assay.

Row | Ki [µM] | SMILES
1 | 510 | O=C(Nc1ncnc2c1ncn2C1OC(O)C(O)C(F)C1O)c1ccccc1 (stereo not drawn) [Nucleoside, A2]
2 | 210 | O=C(Nc1ccn(C2OC(CO)C(O)C(F)C2O)c(=O)n1)c1ccccc1 (stereo not drawn) [Nucleoside, A6]
3 | 645 | Nc1ccn(C2OC(CO)C(O)C(F)C2O)c(=O)n1 (stereo not drawn) [Nucleoside, C6]
